Laboratory results from patent publication US7569572B2, “Pyrazolo[4,3-D]pyrimidines” (Pfizer Inc, priority 2004, dated 2009).
Structures can show the parent of a compound that is named as a salt.

What follows are compounds tested against T1, human platelet PDE5 (Homo sapiens, UniProt O76074) (assay: Method A: PDE-5 Inhibition Scintillation Proximity Assay (SPA) - Human Platelet). Details: cGMP substrate 500 nM, PDE5 isolated from human platelets.
T1 construct: utilizes PDE5 isolated from human platelets; from tissue; host or cells: human platelets
Assay type: biochemical
Excerpt: Method A: PDE-5 Inhibition Scintillation Proximity Assay (SPA)—Human Platelet
The assay measures the inhibition of human platelet PDE5 enzyme activity by a test compound in an in vitro assay that utilizes PDE5 isolated from human platelets. The PDE5 enzyme can be isolated from platelets essentially by a modification of the method of Thompson, W J et al.; Biochemistry 18(23), 5228-5237, 1979, as described by Ballard S A et al.; J. Urology 159(6), 2164-2171, 1998. PDE5 catalyzes the hydrolysis of [^3H]cGMP to the 5′ nucleotide [^3H]GMP. [^3H]GMP binds to yttrium silicate SPA beads and is detected by scintillation counting. […] The inhibition of enzyme activity is calculated relative to total PDE5 activity of uninhibited controls.
PDE5 IC50 Assay: 96-Well Microtiter Plate Format
Buffer A: 20 mM Tris-HCl, 5 mM MgCl2, pH 7.4
Buffer B: 2 mg/ml BSA in Buffer A (enzyme buffer)
cGMP substrate: Final concentration of 500 nM in assay
The amount of ^3H-labeled substrate added depends upon the specific activity of [^3H]cGMP, and it is diluted with a 10 mM stock of cold cGMP in Buffer A for a final substrate concentration of 500 nM in the assay.
PDE enzyme: Prepared in Buffer B. The dilution factor is determined by enzyme activity.
SPA beads: 20 mg/ml suspension prepared in dH2O.
Stocks of standard and test compounds are prepared at 5 mM in 100% DMSO. Compounds are serially diluted in separate dilution plates using a 10-point ½ log dilution format. 2 μl of the compound dilutions are added in duplicate to the wells of the assay plate; 2 μl of 100% DMSO are added to designated control wells. 25 μl of Buffer A are added to all wells. 25 μl of Buffer B are added to the negative control wells, and 25 μl of enzyme are added to the remaining wells. 50 μl of substrate are added to each well. Plates are sealed and incubated for 60 minutes on a plate shaker at 30 C. 50 μl of SPA beads are added to stop the reaction. The plates are again sealed and shaken for 15 minutes to allow the beads to bind the GMP product. The beads are allowed to settle for 30 minutes and then read on a NXT TopCount. Data is analyzed with the ECADA application. In this analysis, % inhibition is calculated: (mean maximum−compound value/(mean maximum−mean minimum)×100. IC50s are determined from sigmoid dose-response curves of enzyme activity vs compound concentration.

IC50 [nM] | Compound
> 100 | CCOCCn1nc(CNC)c2nc(N(C)C)nc(Nc3cnccn3)c21 [Example 17, 1-(2-ethoxyethyl)-N^5,N^5-dimethyl-3-(methylaminomethyl)-N^7-(pyrazin-2-yl)-1H-pyrazolo[4,3-d]pyrimidine-5,7-diamine hydrochloride]
4.3 | CCOCCn1nc(CN2CCC[C@@H]2COC)c2nc(N(C)C)nc(Nc3cc(C)ccn3)c21 [Example 19]
1.1 | CCNc1nc(Nc2cc(C)ccn2)c2c(n1)c(CNS(C)(=O)=O)nn2CCOCC [Example 3]
4.5 | CCOCCn1nc(CNC)c2nc(N(C)C)nc(Nc3cc(C)ccn3)c21 [Example 12]
1.53 | CCCN(Cc1nn(CCOCC)c2c(Nc3cc(C)ccn3)nc(N(C)C)nc12)C(C)=O [Example 39, N-[5-Dimethylamino-1-(2-ethoxyethyl)-7-(4-methylpyridin-2-ylamino)-1H-pyrazolo[4,3-d]pyrimidin-3-ylmethyl]-N-propylacetamide]
5.9 | CCOCCn1nc(CN(C)C(C)=O)c2nc(N(C)C)nc(Nc3ccncn3)c21 [Example 16, N-[5-Dimethylamino-1-(2-ethoxyethyl)-7-(pyrimidin-4-ylamino)-1H-pyrazolo[4,3-d]pyrimidin-3-ylmethyl]-N-methylacetamide]
> 100 | CCOCCn1nc(CNCCOC)c2nc(N(C)C)nc(Nc3ccncn3)c21 [Example 33, 1-(2-ethoxyethyl)-3-[(2-methoxyethylamino)methyl]-N^5,N^5-dimethyl-N^7-pyrimidin-4-yl-1H-pyrazolo[4,3-d]pyrimidine-5,7-diamine]
2.3 | CCOCCn1nc(CN2CCN(C)CC2)c2nc(N(C)C)nc(Nc3cc(C)ccn3)c21 [Example 18, 1-(2-Ethoxyethyl)-N^5,N^5-dimethyl-3-[(4-methylpiperazin-1-yl)methyl]-N^7-(4-methylpyridin-2-yl)-1H-pyrazolo[4,3-d]pyrimidine-5,7-diamine hydrochloride]
9 | CCOCCn1nc(CNC(C)=O)c2nc(NC)nc(Nc3cc(C)ccn3)c21 [Example 7]
0.59 | CCNc1nc(Nc2cc(C)ccn2)c2c(n1)c(CNC(C)=O)nn2CCOCC [Example 8, N-[1-(2-ethoxyethyl)-5-ethylamino-7-(4-methylpyridin-2-ylamino)-1H-pyrazolo[4,3-d]pyrimidin-3-ylmethyl]acetamide]
5.2 | CCOCCn1nc(CN2CCCC2)c2nc(N(C)C)nc(Nc3cc(C)ccn3)c21 [Example 25]
3.2 | CCOCCn1nc(CN2CC[C@@H](OC)C2)c2nc(N(C)C)nc(Nc3cc(C)ccn3)c21 [Example 22]
3.3 | CCOCCn1nc(CNCCOC)c2nc(N(C)C)nc(Nc3cc(C)ccn3)c21 [Example 29]
0.4 | CCOCCn1nc(CN(C)C(C)=O)c2nc(N(C)C)nc(Nc3cc(C)ccn3)c21 [Example 13]
> 100 | CCNCc1nn(CCOCC)c2c(Nc3ccncn3)nc(N(C)C)nc12 [Example 32, 1-(2-ethoxyethyl)-3-(ethylaminomethyl)-N^5,N^5-dimethyl-N^7-(pyrimidin-4-yl)-1H-pyrazolo[4,3-d]pyrimidine-5,7-diamine]
0.53 | CCNc1nc(Nc2cc(C)ccn2)c2c(n1)c(CNC(=O)CC)nn2CCOCC [Example 11, N-[1-(2-ethoxyethyl)-5-ethylamino-7-(4-methylpyridin-2-ylamino)-1H-pyrazolo[4,3-d]pyrimidin-3-ylmethyl]propionamide]
3.4 | CCNCc1nn(CCOCC)c2c(Nc3ccc(C)cn3)nc(N(C)C)nc12 [Example 26]
23.6 | CCOCCn1nc(CN(CC)CC)c2nc(N(C)C)nc(Nc3ccncn3)c21 [Example 34, 3-(Diethylaminomethyl)-1-(2-ethoxyethyl)-N^5,N^5-dimethyl-N^7-(pyrimidin-4-yl)-1H-pyrazolo[4,3-d]pyrimidine-5,7-diamine]
2 | CCOCCn1nc(CN2CC[C@H](OC)C2)c2nc(N(C)C)nc(Nc3cc(C)ccn3)c21 [Example 21]
5.8 | CCCNCc1nn(CCOCC)c2c(Nc3cc(C)ccn3)nc(N(C)C)nc12 [Example 24]
